The subject of experiment [1] is HER2-expressing SK-BR-3 human breast cancer cells. As to the kind of experiment: Cell proliferation suppression test, SK-BR-3 (SRB staining). Format: cell-based. The conditions noted are these: SK-BR-3 cells, incubated for 3 or 5 days, SRB protein staining, absorbance 550 nm, read-out: Cell proliferation inhibition (IC50; μM) SK-BR-3. Here is the method: (§1) 100 μl of a suspension of HER2-expressing SK-BR-3 human breast cancer cells or 100 μl of BT-474 (2,000 cells) or 100 μl (4,000 cells) of a suspension of normal human cell fibroblast MRC-5 was sown in a 96-well microplate and cultured at 37° C. in a 5% carbonic acid gas incubator. On the following day, 100 μl of a solution of the test compound which had previously been diluted 2-fold, was added and the mixture was incubated for 3 or 5 days. The cells were fixed and washed with 5% glutaraldehyde solution and further fixed with 10% trichloroacetic acid solution, after which a 0.4% (W/V) SRB 0.4% (W/V) solution (dissolved in 1% acetic acid) was added to stain the cell protein. After the pigment solution was removed and the plate was washed with 1% acetic acid solution, 100 μl of extract (10 mM tris buffer solution) was added to extract the pigment; absorbance was measured at an absorption wavelength of 550 nm to quantify the amount of cells as protein content.
(§2) Taking the absorbance for the control group, which received no test compound solution, as 100% the ratio of the absorbance for each treatment group was determined, and the compound concentration required to achieve 50% suppression of the residual cell content relative to the control (IC50 value) was calculated.

The subject of experiment [2] is BT-474 human breast cancer cells. As to the kind of experiment: Cell proliferation suppression test, BT-474 (SRB staining). The experiment is classed as cell-based. The conditions noted are these: BT-474 cells, incubated for 3 or 5 days, SRB protein staining, absorbance 550 nm, read-out: Cell proliferation inhibition (IC50; μM) BT-474. Here is the method: as §1, §2
Background: Sulforhodamine B stains cellular protein and so reports cell mass.

In experiment [3] the test system is normal human cell fibroblast MRC-5. The experiment in a line: Cell proliferation suppression test, normal cells MRC-5 (SRB staining). The conditions noted are these: MRC5, MRC-5 normal fibroblasts, incubated for 3 or 5 days, SRB protein staining, absorbance 550 nm, read-out: Cell proliferation inhibition (IC50; μM) MRC-5. Format: cell-based. The procedure:
as §1, §2

The test system of experiment [4] is BT-474 human cancer cells. As to the kind of experiment: Antitumor test in nude mouse model implanted with human cancer cells. The experiment is classed as in vivo. Conditions: twice each day, for 14 days, nude BALB/c female mouse, BT-474 subcutaneous, tumor volume change vs Gelucire control. The procedure: 1×10^7 BT-474 human cancer cells were suspended in Matrigel solution, and the suspension was subcutaneously transplanted to a nude BALB/c female mouse (5 weeks old). In order to enhance the take ratio of the tumor, an estrogen preparation was intramuscularly administered to a hind leg at plantation and 7 days after transplantation.
A Gelucire solution (0.3 or 1 mg/ml) of the compound of the present invention was orally administered at a dosage of 10 ml/kg, twice each day, for 14 days. During the first day and the last day that the administration was carried out, the tumor diameter was measured, and the tumor volume was calculated using the formula: tumor volume=major axis x minor axis x minor axis x(1/2). The T/C (%) was calculated as the ratio of the value obtained by subtracting the tumor volume on the last day of administration from the tumor volume on the first day of administration for the control group (to which only Gelucire was administered) and the value obtained by subtracting the tumor volume on the last day of administration from the tumor volume on the first day of administration for the treatment group.

Marks after values point to notes of the source that are not given here.

`COc1cccc(-c2nc3cc(-c4ccccc4)cnc3[nH]2)c1` [Example 1, 2-(3-methoxyphenyl)-6-phenyl-1H-imidazo[4,5-b]pyridine]: the values for the IC50 in experiment [1], in experiment [2] and in experiment [3] were 0.12 µM, 0.28 µM and > 25 µM, respectively. Moreover, the “T/C(%) 3 mg/kg” value in experiment [4] (3 mg/kg orally) is on record as 58* %. The “T/C(%) 10 mg/kg” value in experiment [4] (10 mg/kg orally) is on record as 31** %.

Consider `COc1ccc(Cc2nc3cc(-c4ccco4)cnc3[nH]2)cc1OC` [Example 97, 2-(3,4-dimethoxybenzyl)-6-(2-furyl)-1H-imidazo[4,5-b]pyridine], for which the figures for the IC50 in experiment [1], in experiment [2] and in experiment [3] were 0.94 µM, 0.49 µM and > 25 µM, respectively.

Consider `Clc1ccc(Cc2nc3cc(-c4ccco4)cnc3[nH]2)cc1` [Example 113, 2-(4-chlorobenzyl)-6-(2-furyl)-1H-imidazo[4,5-b]pyridine], for which the IC50 in experiment [1] was 0.22 µM; in experiment [2], 0.25 µM; in experiment [3], ≥ 25 µM.

In the case of `COc1cccc(-c2nc3ncc(-c4ccccc4)cc3n2Cc2ccccc2O)c1` [Example 157, 2-[[2-(3-methoxyphenyl)-6-phenyl-1H-imidazo[4,5-b]pyridin-1-yl]methyl]phenol], the IC50 in experiment [1] was 0.23 µM; in experiment [2], 0.19 µM; in experiment [3], > 25 µM.

On to `COc1cccc(-c2nc3ncc(-c4ccccc4)cc3n2CC2CC2)c1` [Example 202, 1-(cyclopropylmethyl)-2-(3-methoxyphenyl)-6-phenyl-1H-imidazo[4,5-b]pyridine], for which the results for the IC50 in experiment [1], in experiment [2] and in experiment [3] were 0.55 µM, 1.1 µM and 21 µM, respectively.

Take `Fc1ccc(/C=C/c2nc3cc(-c4ccco4)ccc3o2)c(F)c1` [Example 219, 2-[(E)-2-(2,4-difluorophenyl)ethenyl]-5-(2-furyl)benzoxazole]: the figures for the IC50 in experiment [1], in experiment [2] and in experiment [3] were 0.14 µM, 0.83 µM and > 25 µM, respectively.

The values above are taken from US7622479B2, “Bicyclic derivative, its production and use” (Takeda Pharmaceutical Company Limited, priority 2001, dated 2009).
